From patent publication US5665745A, “Heterocyclic compounds and their preparation and use” (Eli Lilly and Company, priority 1995, dated 1997)
Like-named read-outs stand apart in the source and are kept apart here.

Assays:
[1] = biological target: T1, muscarinic receptors (M1 -site, pirenzepine sensitive site) (Rattus norvegicus, UniProt P08482); experiment: inhibition of ^3 HPRZ (pirenzepine, [N-methyl-^3 H]) binding to rat cerebral cortex membranes; set-up: species or system rat (male Wistar
T1 construct: from tissue; host or cells: cerebral cortex membranes of male Wistar rats
T1 sequence (P08482 1-460): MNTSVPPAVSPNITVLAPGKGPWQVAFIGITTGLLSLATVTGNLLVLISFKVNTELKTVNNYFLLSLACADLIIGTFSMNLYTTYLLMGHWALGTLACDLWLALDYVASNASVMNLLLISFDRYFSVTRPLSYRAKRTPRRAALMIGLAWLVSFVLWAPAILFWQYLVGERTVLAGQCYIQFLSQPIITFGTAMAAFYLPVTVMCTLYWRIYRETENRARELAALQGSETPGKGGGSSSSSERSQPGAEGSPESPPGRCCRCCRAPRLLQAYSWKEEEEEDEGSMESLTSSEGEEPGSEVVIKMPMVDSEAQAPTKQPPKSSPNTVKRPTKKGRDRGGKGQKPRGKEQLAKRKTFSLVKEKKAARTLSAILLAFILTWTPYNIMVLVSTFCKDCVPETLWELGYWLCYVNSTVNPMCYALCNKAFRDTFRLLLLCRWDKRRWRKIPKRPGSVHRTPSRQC
Method in brief: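 Male Wistar rat cortex membranes in 20 mM Hepes pH 7.4 were incubated with 1.0 nM (final) [3H]pirenzepine for 60 min at 20° C; nonspecific binding was defined with 1 μg/mL atropine. Filtration and scintillation counting were used, and IC50 was calculated from a single concentration assuming mass-action kinetics.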

[2] = biological target: muscarinic acetylcholine receptors; experiment: inhibition of specific binding of ^3 H-Oxotremorine-M (^3 H-Oxo); set-up: species or system rat (male Wistar; conditions: ^3 H-Oxotremorine 1.0 nM, rat cortex, 30 min. at 25° C.
Method in brief: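 Rat cortex membranes (male Wistar) in 20 mM Hepes pH 7.4 incubated with 1.0 nM ^3H-Oxotremorine-M (final) and test compound for 30 min at 25 °C; arecoline defines non-specific binding. Bound radioactivity by filtration and scintillation counting; IC50 (nM) from a single concentration via Co/Cx mass-action formula, reflecting high- and medium-affinity sites.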

[3] = ^3 HPRZ 1.0 nM, rat cortex, 60 min. at 20° C., read-out: ^3 HPRZ IC50 (head from b208 on: Pir IC-50)

Row | Compound | IC50 [1] | IC50 [2] | IC50 [1, 3]
1 | FC(F)(F)C(F)(F)CSc1nsnc1OC1CN2CCC1CC2 (racemic) [Compound 20, (±)-3-(2,2,3,3,3-Pentafluoropropylthio)-4-(1-azabicyclo-[2.2.2]octyl-3-oxy)-1,2,5-thiadiazole] | 4 nM | 2.6 nM | 
2 | FC(F)(F)C(F)(F)C(F)(F)COc1nsnc1O[C@@H]1CN2CCC[C@H]1C2 (relative stereo) [Compound 187, (±)-endo-3-(4,4,4,3,3,2,2-Heptafluorobutoxy)-4-(1-azabicyclo[3.2.1]octyl-6-oxy)-1,2,5-thiadiazole] | 1.6 nM | 2.8 nM | 
3 | CCCCSc1nsnc1OC1CCNC1 (racemic) [Compound 53, (±)-3-Butylthio-4-(3-pyrrolidnyloxy)-1,2,5-thiadiazole] |  | 24 nM | 35 nM
4 | CCCCSc1nsnc1O[C@H]1CN2CCC[C@@H]1C2 [Compound 138, (5R,6R)-endo-3-Butylthio-4-(1-azabicyclo[3.2.1]octyl-6-oxy)-1,2,5-thiadiazole] |  | 0.65 nM | 0.47 nM
5 | CCCCCSc1nsnc1O[C@H]1CN2CCC[C@H]1C2 (relative stereo) [Compound 23, (±)-exo-3-Pentylthio-4-(1-azabicyclo[3.2.1]octyl-6-oxy)-1,2,5-thiadiazole] |  | 55 nM | 18 nM
6 | CCCCSc1nsnc1OC1CC2CCC1NC2 (racemic) [Compound 65, (±)3-Butylthio-4-(exo-2-azabicyclo[2.2.2]oct-6-yloxy)-1,2,5-thiadiazole] |  | 2.3 nM | 0.72 nM
7 | CCCCOc1nsnc1O[C@@H]1C[C@H]2CC(=O)C[C@@H]1N2C (relative stereo) [Compound 46, (±)-exo-3-Butyloxy-4-(6-(N-methyl-8-azabicyclo[3.2.1]octan-3-onoxy))-1,2,5-thiadiazole] |  | > 1000 nM | > 1000 nM
8 | CCCCOc1nsnc1OC1CC2CCC(C1)N2C (centres unmarked) [Compound 45] | 4.6 nM | 29 nM | 
9 | CCCCOc1nsnc1OC[C@@H]1CCCN1C [Compound 31, (S)-3-Butyloxy-4-(1-methyl-2-pyrrolidinylmethyloxy)-1,2,5-thiadiazole] |  | 32 nM | 12 nM
10 | CCCCCSc1nsnc1OC1CN2CCC1CC2 (racemic) [Compound 15, (±)-3-Pentylthio-4-(1-azabicyclo[2.2.2]octyl-3-oxy)-1,2,5-thiadiazole] | 2.3 nM | 1.6 nM | 
11 | COc1ccc(CCCOc2nsnc2OC2CN3CCC2CC3)cn1 (racemic) [Compound 119, (±)-3-(3-[2-Methoxy-5-pyridyl]propyloxy)-4-(1-azabicyclo[2.2.2]octyl-3-oxy)-1,2,5-thiadiazole] |  | 17 nM | 124 nM
12 | CSCCOc1nsnc1O[C@@H]1CN2CCC[C@H]1C2 (relative stereo) [Compound 170, (±)-endo-3-(2-Methylthioethoxy)-4-(1-azabicyclo[3.2.1]octyl-6-oxy)-1,2,5-thiadiazole] |  | 1.5 nM | 3 nM
13 | Cl/C=C/COc1nsnc1OC1CN2CCC1CC2 (mixture of isomers) [Compound 120, (±)-3-(trans-3-chloro-2-propenyloxy)-4-(1-azabicyclo[2.2.2]octyl-3-oxy)-1,2,5-thiadiazole] | 71 nM | 11 nM | 
14 | Clc1ccc(OCCOc2nsnc2OC2CN3CCC2CC3)cc1 (racemic) [Compound 118, (±)-3-(2-[4-Chlorophenoxy]ethoxy)-4-(1-azabicyclo[2.2.2]octyl-3-oxy)-1,2,5-thiadiazole] | 70 nM | 7.2 nM | 
15 | COc1nsnc1OC1CN2CCC1CC2 (racemic) [Compound 5, (±)-3-Methoxy-4-(1-azabicyclo[2.2.2]octyl-3-oxy)-1,2,5-thiadiazole] |  | 162 nM | 183 nM
16 | CCCCOc1nsnc1OCCN(C)C [Compound 33, 3-Butyloxy-4-(2-(dimethylamino)ethoxy)-1,2,5-thiadiazole] |  | 51 nM | 48 nM
17 | O=C1CCCn2cccc21 [Compound 139, 1-azabicyclo[4.3.0]nona-6,8-diene-5-one] |  | 230 nM | 145 nM

Row | Compound | IC50 [1] | IC50 [2] | IC50 [1, 3]
18 | FC(F)(F)C(F)(F)C(F)(F)COc1nsnc1OC1CN2CCC1CC2 (racemic) [Compound 69, (±)3-(2,2,3,3,4,4,4-heptafluorobutyloxy)-4-[-3-(1-azabicyclo[2.2.2]octyloxy)]-1,2,5-thiadiazole] | 20 nM | 29 nM | 
19 | C/C=C/COc1nsnc1OC1CN2CCC1CC2 (mixture of isomers) [Compound 109, (±)-3-(trans-2-butenyloxy)-4-(1-azabicyclo[2.2.2]octyl-3-oxy)-1,2,5-thiadiazole] | 58.3 nM | 12.3 nM | 
20 | c1csc(-c2ccc(SCCSc3nsnc3OC3CN4CCC3CC4)s2)c1 (racemic) [Compound 59, (±)-3-(2-(2-(5-(2-Thienyl)thienyl)thio)ethylthio)-4-(1-azabicyclo[2.2.2]octyl-3-oxy)-1,2,5-thiadiazole] |  | 104 nM | 102 nM
21 | CC#CCOc1nsnc1OC1CN2CCC1CC2 (racemic) [Compound 105, (±)-3-(2-butynyloxy)-4-(1-azabicyclo[2.2.2]octyl-3-oxy)-1,2,5-thiadiazole] | 65.6 nM | 7.9 nM | 
22 | c1ccc(CCCCSc2nsnc2OC2CN3CCC2CC3)cc1 (racemic) [Compound 148, (±)-3-(4-Phenylbutylthio)-4-(1-azabicyclo[2.2.2]octyl-3-oxy)-1,2,5-thiadiazole] | 25 nM | 8 nM | 
23 | C#CCCOc1nsnc1OC1CN2CCC1CC2 (racemic) [Compound 113, (±)-3-(3-butynoxy)-4-(1-azabicyclo[2.2.2]octyl-3-oxy)-1,2,5-thiadiazole] | 23 nM | 3.6 nM | 
24 | Clc1nsnc1O[C@@H]1CN2CCC[C@@H]1C2 (relative stereo) [Compound 47, (±)-exo-3-Chloro-4-(1-azabicyclo[3.2.1]octyl-6-oxy)-1,2,5thiadiazole] | 23 nM | 54 nM | 
25 | FC(F)(F)CCCSc1nsnc1OC1CN2CCC1CC2 (racemic) [Compound 154, (±)-3-(4,4,4-trifluorobutylthio)-4-(1-azabicyclo[2.2.2]octyl-3-oxy)-1,2,5-thiadiazole] | 6.3 nM | 11 nM | 
26 | Fc1ccc(COc2nsnc2O[C@@H]2CN3CCC[C@H]2C3)c(F)c1 (relative stereo) [Compound 195, (±)-endo-3-(2,4-Difluorobenzyloxy)-4-(1-azabicyclo[3.2.1]octyl-6-oxy)-1,2,5-thiadiazole] |  | 4.9 nM | 7.5 nM
27 | c1csc(-c2ccc(Sc3nsnc3OC3CN4CCC3CC4)s2)c1 (racemic) [Compound 57, (±)-3-(2-(5-(2-Thienyl)thienyl)thio)-4-(1-azabicyclo [2.2.2]octyl-3-oxy)-1,2,5-thiadiazole] | 37 nM | 88 nM | 
28 | FC(F)(F)c1ccc(OC(CCSc2nsnc2OC2CN3CCC2CC3)c2ccccc2)cc1 (racemic) [Compound 153, (±)-3-(3-Phenyl-3-[4-trifluoromethylphenoxy]propylthio)-4-(1-azabicyclo[2.2.2]octyl-3-oxy)-1,2,5-thiadiazole] |  | 597 nM | 205 nM
29 | CCCCc1ccc(COc2nsnc2O[C@@H]2CN3CCC[C@H]2C3)cc1 (relative stereo) [Compound 192, (±)-endo-3-(4-n-Butylbenzyloxy)-4-(1-azabicyclo[3.2.1]octyl-6-oxy)-1,2,5-thiadiazole] |  | 13 nM | 21 nM
30 | CCCCSc1nsnc1OC1CCCN(C)C1 (racemic) [Compound 29, (±)-3-Butylthio-4-(1-methyl-3-piperidyloxy)-1,2,5-thiadiazole] |  | 34 nM | 20 nM
31 | Fc1ccc(COc2nsnc2O[C@@H]2CN3CCC[C@H]2C3)cc1 (relative stereo) [Compound 194, (±)-endo-3-(4-Fluorobenzyloxy)-4-(1-azabicyclo[3.2.1]octyl-6-oxy)-1,2,5-thiadiazole] |  | 2.1 nM | 4 nM
32 | c1csc(CCCSc2nsnc2OC2CN3CCC2CC3)c1 (racemic) [Compound 21, (±)-3-(3-(2-Thienyl)propylthio)-4-(1-azabicyclo[2.2.2]-octyl-3-oxy-1,2,5-thiadiazole] | 4 nM | 4.4 nM | 
33 | C1CCC(CCOc2nsnc2O[C@@H]2CN3CCC[C@H]2C3)CC1 (relative stereo) [Compound 200, (±)-endo-3-(2-Cyclohexylethoxy)-4-(1-azabicyclo[3.2.1]octyl-6-oxy)-1,2,5-thiadiazole] |  | 16 nM | 12 nM
34 | CCCCCSc1nsnc1O[C@@H]1CN2CCC[C@H]1C2 (relative stereo) [Compound 24, (±)-Endo-3-pentylthio-4-(1-azabicyclo[3.2.1]-octyl-6-oxy)-1,2,5-thiadiazole] |  | 19 nM | 19 nM
